Assay results as given in ChEMBL document CHEMBL1137557, “Geometry of GPPE binding to picrate and to the urokinase type plasminogen activator” (Bioorg Med Chem Lett, 2007).

How the values were obtained:
[1] = target: Urokinase-type plasminogen activator (Homo sapiens, UniProt P00749); assay: Inhibition of uPA
Trypsin = Trypsin (Homo sapiens, UniProt P07477+P07478+P35030); assay: Inhibition of trypsin; assay type: protein assay
[2] = target: Tissue-type plasminogen activator (Homo sapiens, UniProt P00750); assay: Inhibition of tPA
Tissue-type plasminogen activator, sequence (P00750 whole entry): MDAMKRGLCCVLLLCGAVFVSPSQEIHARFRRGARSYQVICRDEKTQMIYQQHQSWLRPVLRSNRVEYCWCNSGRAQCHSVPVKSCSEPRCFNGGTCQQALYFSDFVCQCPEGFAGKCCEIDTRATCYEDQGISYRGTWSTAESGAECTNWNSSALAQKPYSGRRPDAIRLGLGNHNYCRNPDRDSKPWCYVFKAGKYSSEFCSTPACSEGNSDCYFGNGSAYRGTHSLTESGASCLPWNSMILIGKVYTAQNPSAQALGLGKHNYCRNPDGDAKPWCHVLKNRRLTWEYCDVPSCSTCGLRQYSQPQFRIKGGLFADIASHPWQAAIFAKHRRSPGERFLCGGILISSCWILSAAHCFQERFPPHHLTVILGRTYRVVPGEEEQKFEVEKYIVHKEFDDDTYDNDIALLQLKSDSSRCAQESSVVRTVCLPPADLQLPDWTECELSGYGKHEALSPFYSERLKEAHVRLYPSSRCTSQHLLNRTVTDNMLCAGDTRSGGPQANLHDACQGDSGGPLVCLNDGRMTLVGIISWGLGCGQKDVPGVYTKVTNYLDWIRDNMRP

Ki [1]: 34 µM
Ki (Trypsin): 160 µM
Ki [2]: > 1000 µM
SMILES: N=C(N)Nc1ccc(CC(=O)c2ccccc2)cc1
